{
  "source": "patent US7101831B2",
  "about": "“Compositions of material, especially lubricants and pressure transmitting means, the production and use thereof” (Fuchs Petrolub AG, priority 2000, dated 2006)",
  "assay_type_in_all_cases": "physicochemical",
  "key": {"[1]": {"assay": "Kinematic viscosity (KV) of the esters compared to methyl oleate", "description": "(§1) Example 27 illustrates the properties of the methyl formyloxystearate and methyl [2,2-dimethylpropionyloxy]-stearate esters prepared according to examples 1 and 4 compared to pure methyl oleate (base raw material)."}, "Viscosity index (VI)": {"assay": "Viscosity index (VI)", "description": "as §1"}, "[2]": {"assay": "ROBOT oxidation stability test", "settings": "35 g of lubricant; 6.25 bar of oxygen; T = 120° C., without catalyst"}, "Pour point": {"assay": "Pour point", "description": "as §1"}, "Density": {"assay": "Density", "description": "as §1"}},
  "data": [
    {"compound": "CCCCCCCC/C=C\\CCCCCCCC(=O)OC", "note": "[Methyl oleate, methyl oleate, reference compound]", "values": [
      {"measurement": "KV (40° C.)", "setting": "[1]", "value": 4.5, "unit": "mm^2/s"},
      {"measurement": "KV (100° C.)", "setting": "[1]", "value": 1.7, "unit": "mm^2/s"},
      {"measurement": "VI", "setting": "Viscosity index (VI)", "value": 178},
      {"measurement": "ROBOT", "setting": "[2]", "value": 10, "unit": "min"},
      {"measurement": "Pour point", "setting": "Pour point", "value": "−18", "unit": "°C"}
    ]},
    {"compound": "CCCCCCCCCC(CCCCCCCC(=O)OC)OC(=O)C(C)(C)C", "note": "(centres unmarked) [methyl 9-(10)-[2,2′-dimethylpropionyloxy]stearate]", "values": [
      {"measurement": "KV (40° C.)", "setting": "[1]", "value": 13.1, "unit": "mm^2/s"},
      {"measurement": "KV (100° C.)", "setting": "[1]", "value": 3.4, "unit": "mm^2/s"},
      {"measurement": "VI", "setting": "Viscosity index (VI)", "value": 139},
      {"measurement": "ROBOT", "setting": "[2]", "value": 27, "unit": "min"},
      {"measurement": "Pour point", "setting": "Pour point", "value": "−9", "unit": "°C"},
      {"measurement": "Density (15° C.)", "setting": "Density", "value": 902.73, "unit": "kg/m^3"}
    ]},
    {"compound": "methyl 9(10)-formyloxystearate [Methyl formyloxystearate]", "values": [
      {"measurement": "KV (40° C.)", "setting": "[1]", "value": 12.0, "unit": "mm^2/s"},
      {"measurement": "KV (100° C.)", "setting": "[1]", "value": 3.1, "unit": "mm^2/s"},
      {"measurement": "VI", "setting": "Viscosity index (VI)", "value": 120},
      {"measurement": "ROBOT", "setting": "[2]", "value": 165, "unit": "min"},
      {"measurement": "Pour point", "setting": "Pour point", "value": "−18", "unit": "°C"},
      {"measurement": "Density (15° C.)", "setting": "Density", "value": 933.65, "unit": "kg/m^3"}
    ]}
  ]
}
